These are literature values, as cited in US6947791B2, “Method and apparatus for electrically assisted topical delivery of agents for cosmetic applications” (Genetronics, Inc., priority 1998, dated 2005).

For this series, the system named is human dermal fibroblasts. As to conditions: for MTT50 (amount required to kill 50% of the cells in cell culture): pH 7.5.

Like-named read-outs stand apart in the source and are kept apart here.

As to `O=C1O[C@H]([C@@H](O)CO)C([O-])=C1OP(=O)([O-])[O-].O=C1O[C@H]([C@@H](O)CO)C([O-])=C1OP(=O)([O-])[O-].[Mg+2].[Mg+2].[Mg+2]` [MAP], the “MTT50 (amount required to kill 50% of the cells in cell culture)” value by setting is: (fibroblasts from person one) 75,000 ppm; (fibroblasts from person two) “higher than 100,000 ppm”. Further, the “cytotoxicity compared to L-ascorbic acid” value (fibroblasts of all ages) is listed as “significantly lower cytotoxicity”.
